Our source for the Bmax and Kd values is publication PMC9354082, “5-HT3 Receptor MX Helix Contributes to Receptor Function” (ACS Chemical Neuroscience, 2022).

Substitutions are numbered along the chain they refer to.

What all share (assay): Radioligand binding, transfected HEK293 cell membranes
Common to all, as to settings: HEK cell membranes, n=4

Experiment [1] has as its target T1, P318A mutant 5-HT3 receptor (Mus musculus, UniProt P23979, P345A).
T1 construct: expressed in transfected cells; host or cells: HEK293 cells (membranes)
T1 sequence (P23979 24-489 P345A): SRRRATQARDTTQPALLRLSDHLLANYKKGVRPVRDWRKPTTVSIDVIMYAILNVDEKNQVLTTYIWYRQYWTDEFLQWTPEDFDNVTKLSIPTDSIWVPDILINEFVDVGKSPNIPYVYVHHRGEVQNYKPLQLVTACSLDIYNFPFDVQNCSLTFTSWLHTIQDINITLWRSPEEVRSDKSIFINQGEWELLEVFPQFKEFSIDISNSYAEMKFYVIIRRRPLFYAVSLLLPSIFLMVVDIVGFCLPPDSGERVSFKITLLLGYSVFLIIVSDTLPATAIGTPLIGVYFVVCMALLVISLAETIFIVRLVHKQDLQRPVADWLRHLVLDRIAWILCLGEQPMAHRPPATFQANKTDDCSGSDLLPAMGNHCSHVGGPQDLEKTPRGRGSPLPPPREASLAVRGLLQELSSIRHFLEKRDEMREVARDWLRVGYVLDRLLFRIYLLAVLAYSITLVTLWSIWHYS
As to the method: (§1) One method to explore this is to perform radiolabeled ligand binding to examine the parameters associated with the binding site.
(§2) This was undertaken as previously described.[23] Briefly, transfected HEK293 cell membranes were incubated in 0.5 ml of HEPES buffer containing the 5-HT3 receptor antagonist [^3H]GR65630 to label cell surface receptors. Nonspecific binding was determined using 1 μM quipazine. Data were analyzed by iterative curve fitting using Prism. Values are presented as mean ± SEM.

Experiment [2] addresses T2, H323A mutant 5-HT3 receptor (Mus musculus, UniProt P23979, H350A).
T2 construct: expressed in transfected cells; host or cells: HEK293 cells (membranes)
T2 sequence (P23979 24-489 H350A): T1 sequence (P23979 24-489 P345A) with A322P, H327A
As to the method: as §1, §2

A further experiment addresses T3, WT 5-HT3 receptor (Mus musculus, UniProt P23979).
T3 construct: expressed in transfected cells; host or cells: HEK293 cells (membranes)
T3 sequence (P23979 24-489): T1 sequence (P23979 24-489 P345A) with A322P
As for the experimental part: as §1, §2

In general, Kd refers to a measure of binding affinity in units of concentration. High values mean a looser complex, low ones a tighter complex. For `Cc1[nH]cnc1CCC(=O)c1cn(C)c2ccccc12` [[^3H]GR65630], the Bmax is recorded as 0.9 ± 0.2 pmol/mg protein in experiment [1], 1.0 ± 0.1 pmol/mg protein in experiment [2] and 1.1 ± 0.4 pmol/mg protein at WT 5-HT3 receptor. Binding on WT 5-HT3 receptor was put at a Kd of 0.25 ± 0.1 nM.
